Test: Stability of cannabinoid and Vitamin E components of Beverage 1 (AB White) stored at 8° C. and 21-25° C., LCMSMS over 570 days
Type: physicochemical
Conditions: for Stability in AB White, 8° C. (content by LCMSMS): beverage stored at 8° C.; for Stability in AB White, 21-25° C. (content by LCMSMS): beverage stored at 21-25° C.
Experimental: The LCMSMS was calibrated for 0-1000 ng/ml cannabinoids with the same resin material used in the preparation of the concentrates. At each time period, 100 ml of beverage was diluted with 10 ml of methanol and injected into the LCMSMS for analysis.

CCCCCc1cc(O)c2c(c1)OC1(C)CCC3C1C2C3(C)C (centres unmarked) [CBL, cannabicyclol]
Stability in AB White, 8° C. (content by LCMSMS) (day 0): 0.550 µg/mL | Stability in AB White, 8° C. (content by LCMSMS) (day 1): 0.541 µg/mL | Stability in AB White, 8° C. (content by LCMSMS) (day 2): 0.542 µg/mL | Stability in AB White, 8° C. (content by LCMSMS) (day 3): 0.553 µg/mL | Stability in AB White, 8° C. (content by LCMSMS) (day 5): 0.552 µg/mL | Stability in AB White, 8° C. (content by LCMSMS) (day 8): 0.537 µg/mL | Stability in AB White, 8° C. (content by LCMSMS) (day 9): 0.535 µg/mL | Stability in AB White, 8° C. (content by LCMSMS) (day 10): 0.544 µg/mL | Stability in AB White, 8° C. (content by LCMSMS) (day 11): 0.544 µg/mL | Stability in AB White, 8° C. (content by LCMSMS) (day 12): 0.553 µg/mL | Stability in AB White, 8° C. (content by LCMSMS) (day 15): 0.534 µg/mL | Stability in AB White, 8° C. (content by LCMSMS) (day 16): 0.546 µg/mL | Stability in AB White, 8° C. (content by LCMSMS) (day 17): 0.540 µg/mL | Stability in AB White, 8° C. (content by LCMSMS) (day 18): 0.536 µg/mL | Stability in AB White, 8° C. (content by LCMSMS) (day 19): 0.537 µg/mL | Stability in AB White, 8° C. (content by LCMSMS) (day 22): 0.555 µg/mL | Stability in AB White, 8° C. (content by LCMSMS) (day 23): 0.545 µg/mL | Stability in AB White, 8° C. (content by LCMSMS) (day 24): 0.548 µg/mL | Stability in AB White, 8° C. (content by LCMSMS) (day 25): 0.540 µg/mL | Stability in AB White, 8° C. (content by LCMSMS) (day 26): 0.534 µg/mL | Stability in AB White, 8° C. (content by LCMSMS) (day 29): 0.547 µg/mL | Stability in AB White, 8° C. (content by LCMSMS) (day 30): 0.544 µg/mL | Stability in AB White, 8° C. (content by LCMSMS) (day 60): 0.543 µg/mL | Stability in AB White, 8° C. (content by LCMSMS) (day 90): 0.527 µg/mL | Stability in AB White, 8° C. (content by LCMSMS) (day 120): 0.534 µg/mL | Stability in AB White, 8° C. (content by LCMSMS) (day 150): 0.540 µg/mL | Stability in AB White, 8° C. (content by LCMSMS) (day 180): 0.542 µg/mL | Stability in AB White, 8° C. (content by LCMSMS) (day 210): 0.534 µg/mL | Stability in AB White, 8° C. (content by LCMSMS) (day 240): 0.535 µg/mL | Stability in AB White, 8° C. (content by LCMSMS) (day 270): 0.539 µg/mL | Stability in AB White, 8° C. (content by LCMSMS) (day 300): 0.526 µg/mL | Stability in AB White, 8° C. (content by LCMSMS) (day 330): 0.543 µg/mL | Stability in AB White, 8° C. (content by LCMSMS) (day 360): 0.533 µg/mL | Stability in AB White, 8° C. (content by LCMSMS) (day 390): 0.535 µg/mL | Stability in AB White, 8° C. (content by LCMSMS) (day 420): 0.526 µg/mL | Stability in AB White, 8° C. (content by LCMSMS) (day 450): 0.532 µg/mL | Stability in AB White, 8° C. (content by LCMSMS) (day 480): 0.521 µg/mL | Stability in AB White, 8° C. (content by LCMSMS) (day 510): 0.514 µg/mL | Stability in AB White, 8° C. (content by LCMSMS) (day 540): 0.514 µg/mL | Stability in AB White, 8° C. (content by LCMSMS) (day 570): 0.503 µg/mL | Stability in AB White, 21-25° C. (content by LCMSMS) (day 0): 0.550 µg/mL | Stability in AB White, 21-25° C. (content by LCMSMS) (day 1): 0.539 µg/mL | Stability in AB White, 21-25° C. (content by LCMSMS) (day 2): 0.540 µg/mL | Stability in AB White, 21-25° C. (content by LCMSMS) (day 3): 0.543 µg/mL | Stability in AB White, 21-25° C. (content by LCMSMS) (day 5): 0.530 µg/mL | Stability in AB White, 21-25° C. (content by LCMSMS) (day 8): 0.542 µg/mL | Stability in AB White, 21-25° C. (content by LCMSMS) (day 9): 0.535 µg/mL | Stability in AB White, 21-25° C. (content by LCMSMS) (day 10): 0.546 µg/mL | Stability in AB White, 21-25° C. (content by LCMSMS) (day 11): 0.552 µg/mL | Stability in AB White, 21-25° C. (content by LCMSMS) (day 12): 0.529 µg/mL | Stability in AB White, 21-25° C. (content by LCMSMS) (day 15): 0.548 µg/mL | Stability in AB White, 21-25° C. (content by LCMSMS) (day 16): 0.537 µg/mL | Stability in AB White, 21-25° C. (content by LCMSMS) (day 17): 0.554 µg/mL | Stability in AB White, 21-25° C. (content by LCMSMS) (day 18): 0.554 µg/mL | Stability in AB White, 21-25° C. (content by LCMSMS) (day 19): 0.552 µg/mL | Stability in AB White, 21-25° C. (content by LCMSMS) (day 22): 0.547 µg/mL | Stability in AB White, 21-25° C. (content by LCMSMS) (day 23): 0.530 µg/mL | Stability in AB White, 21-25° C. (content by LCMSMS) (day 24): 0.546 µg/mL | Stability in AB White, 21-25° C. (content by LCMSMS) (day 25): 0.532 µg/mL | Stability in AB White, 21-25° C. (content by LCMSMS) (day 26): 0.549 µg/mL | Stability in AB White, 21-25° C. (content by LCMSMS) (day 29): 0.552 µg/mL | Stability in AB White, 21-25° C. (content by LCMSMS) (day 30): 0.543 µg/mL | Stability in AB White, 21-25° C. (content by LCMSMS) (day 60): 0.544 µg/mL | Stability in AB White, 21-25° C. (content by LCMSMS) (day 90): 0.541 µg/mL | Stability in AB White, 21-25° C. (content by LCMSMS) (day 120): 0.516 µg/mL | Stability in AB White, 21-25° C. (content by LCMSMS) (day 150): 0.517 µg/mL | Stability in AB White, 21-25° C. (content by LCMSMS) (day 180): 0.527 µg/mL | Stability in AB White, 21-25° C. (content by LCMSMS) (day 210): 0.514 µg/mL | Stability in AB White, 21-25° C. (content by LCMSMS) (day 240): 0.515 µg/mL | Stability in AB White, 21-25° C. (content by LCMSMS) (day 270): 0.535 µg/mL | Stability in AB White, 21-25° C. (content by LCMSMS) (day 300): 0.532 µg/mL | Stability in AB White, 21-25° C. (content by LCMSMS) (day 330): 0.526 µg/mL | Stability in AB White, 21-25° C. (content by LCMSMS) (day 360): 0.526 µg/mL | Stability in AB White, 21-25° C. (content by LCMSMS) (day 390): 0.518 µg/mL | Stability in AB White, 21-25° C. (content by LCMSMS) (day 420): 0.523 µg/mL | Stability in AB White, 21-25° C. (content by LCMSMS) (day 450): 0.521 µg/mL | Stability in AB White, 21-25° C. (content by LCMSMS) (day 480): 0.510 µg/mL | Stability in AB White, 21-25° C. (content by LCMSMS) (day 510): 0.503 µg/mL | Stability in AB White, 21-25° C. (content by LCMSMS) (day 540): 0.510 µg/mL | Stability in AB White, 21-25° C. (content by LCMSMS) (day 570): 0.505 µg/mL
